From patent US20250019378A1, “PYRROLE[2,3-B]PYRIDINE DERIVATIVES AS TYRO3 INHIBITORS” (HALIA THERAPEUTICS, INC., priority 2021, published 2025)

Target: recombinant human Tyro3 (Homo sapiens (Human), UniProt Q06418)
Test: Tyro3 Enzymatic Assay
Type: biochemical
Details: radiometric [32P]-ATP kinase assay, Poly(Glu, Tyr) substrate, 2 nM enzyme
Procedure: Poly(Glu, Tyr) sodium salt (Glu:Tyr (4:1), quality level 200, molecular weight 5,000-20,000, obtained from Sigma Aldrich, catalogue #P7244, assay concentration 0.20 mg/mL) and recombinant human Tyro3 (obtained from ThermoFisher Scientific, catalogue #PV3828, assay concentration 2 nM) were mixed in assay buffer (20 mM Hepes pH 7.5, 10 mM MgCl2, […] EGTA, 0.02% Brij35, 0.02 mg/ml BSA, 0.1 mM Na3VO4, 2 mM DTT, 1% DMSO, with added MnCl2 at a final concentration of 2 mM). Compounds of interest (in DMSO, serial 3-fold dilution from 10 μM to 0.5 nM) or control (1% DMSO) were dispensed into the kinase reaction mixture by Acoustic technology (Echo550; nanoliter range). After incubation at room temperature for 20 minutes, the kinase reaction was initiated by addition of [^32P]-ATP (Specific activity 10 μCi/μL) and the mixture was incubated at room temperature for 2 hours. The reaction was then stopped by spotting the reaction mixture on strips of phosphocellulose P81 paper. Following washing, the radioactivity of the P81 paper was measured and kinase activity data were expressed as the percent remaining kinase activity in test samples compared to vehicle (dimethyl sulfoxide) reactions. IC50 values and curve fits were obtained using Prism (GraphPad Software).

Chain of recombinant human Tyro3 (Q06418 41-890): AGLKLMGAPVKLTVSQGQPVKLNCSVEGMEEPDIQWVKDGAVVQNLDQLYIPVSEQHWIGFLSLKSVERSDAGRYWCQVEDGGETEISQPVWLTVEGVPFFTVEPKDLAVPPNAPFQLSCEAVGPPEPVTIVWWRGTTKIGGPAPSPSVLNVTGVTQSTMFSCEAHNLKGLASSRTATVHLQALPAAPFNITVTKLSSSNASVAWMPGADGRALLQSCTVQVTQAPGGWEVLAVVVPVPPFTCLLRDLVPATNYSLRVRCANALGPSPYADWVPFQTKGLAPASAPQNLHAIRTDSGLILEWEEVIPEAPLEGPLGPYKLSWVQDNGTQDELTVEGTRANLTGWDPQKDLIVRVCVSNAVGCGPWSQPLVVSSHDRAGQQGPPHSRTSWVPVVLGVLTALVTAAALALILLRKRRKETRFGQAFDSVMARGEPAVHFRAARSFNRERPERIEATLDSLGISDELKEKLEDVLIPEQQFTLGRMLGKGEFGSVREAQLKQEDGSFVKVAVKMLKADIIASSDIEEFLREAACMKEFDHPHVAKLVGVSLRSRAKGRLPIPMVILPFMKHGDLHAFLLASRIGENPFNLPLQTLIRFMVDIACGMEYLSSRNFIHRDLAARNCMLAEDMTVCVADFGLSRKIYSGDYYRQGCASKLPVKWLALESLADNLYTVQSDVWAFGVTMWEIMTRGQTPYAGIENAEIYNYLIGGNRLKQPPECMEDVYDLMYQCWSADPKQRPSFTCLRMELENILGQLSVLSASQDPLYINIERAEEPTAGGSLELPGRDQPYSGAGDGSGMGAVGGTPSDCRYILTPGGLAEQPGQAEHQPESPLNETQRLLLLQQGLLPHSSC

| IC50 [nM] | Compound |
| --- | --- |
| > 500 | COc1ccc(-c2c[nH]c3ncc(-c4cnn(C5CC(OC)C5)c4)cc23)cn1 (centres unmarked) [Compound 33, 5-(1-(3-methoxycyclobutyl)-1H-pyrazol-4-yl)-3-(6-methoxypyridin-3-yl)-1H-pyrrolo[2,3-b]pyridine] |
| > 500 | COc1ccc(-c2c[nH]c3ncc(-c4cc(CN5CCCC(O)C5)n(C)n4)cc23)cn1 (centres unmarked) [Compound 35, 1-((3-(3-(6-methoxypyridin-3-yl)-1H-pyrrolo[2,3-b]pyridin-5-yl)-1-methyl-1H-pyrazol-5-yl)methyl)piperidin-3-ol] |
